Laboratory results from patent US8802597B2, “Herbicidal pyrimidines” (E I du Pont de Nemours and Company, priority 2003, dated 2014).

Tests used:
Test in all cases: Test C pre/postemergence
Type in all cases: in vivo
kochia (Kochia scoparia) = details: for Kochia plant response rating: scale 0 to 100 (0 no effect, 100 complete control)
Description: (§1) Seeds or nutlets of plant species selected from bermudagrass (Cynodon dactylon), Surinam grass (Brachiaria decumbens), cocklebur (Xanthium strumarium), corn (Zea mays), crabgrass (Digitaria sanguinalis), woolly cupgrass (Eriochloa villosa), giant foxtail (Setaria faberii), goosegrass (Eleusine indica), johnsongrass (Sorghum halepense), kochia (Kochia scoparia), lambsquarters (Chenopodium album), morningglory (Ipomoea coccinea), eastern black nightshade (Solanum ptycanthum), yellow nutsedge (Cyperus esculentus), pigweed (Amaranthus retroflexus), common ragweed (Ambrosia elatior), soybean (Glycine max), common (oilseed) sunflower (Helianthus annuus), and velvetleaf (Abutilon theophrasti) were planted and treated preemergence with test chemicals formulated in a non-phytotoxic solvent mixture which included a surfactant.
(§2) At the same time, plants selected from these crop and weed species and also winter barley (Hordeum vulgare), blackgrass (Alopecurus myosuroides), canarygrass (Phalaris minor), chickweed (Stellaria media), downy brome (Bromus tectorum), green foxtail (Setaria viridis), Italian ryegrass (Lolium multiflorum), wheat (Triticum aestivum), wild oat (Avena fatua) and windgrass (Apera spica-venti) were treated with postemergence applications of some of the test chemicals formulated in the same manner. Plants ranged in height from 2 to 18 cm (1- to 4-leaf stage) for postemergence treatments. Plant species in the flooded paddy test consisted of rice (Oryza sativa), umbrella sedge (Cyperus difformis), duck salad (Heteranthera limosa) and barnyardgrass (Echinochloa crus-galli) grown to the 2-leaf stage for testing. Treated plants and controls were maintained in a greenhouse for 12 to 14 days, after which time all species were compared to controls and visually evaluated. Plant response ratings, summarized in Table C, are based on a scale of 0 to 100 where 0 is no effect and 100 is complete control. A dash (-) response means no test result.

[1] = system: johnsongrass (Sorghum halepense); details: for Johnsongrass plant response rating: scale 0 to 100 (0 no effect, 100 complete control)
Description: as §1, §2

[2] = system: crabgrass (Digitaria sanguinalis); details: for Crabgrass plant response rating: scale 0 to 100 (0 no effect, 100 complete control)
Description: as §1, §2

[3] = system: pigweed (Amaranthus retroflexus); details: for Pigweed plant response rating: scale 0 to 100 (0 no effect, 100 complete control)
Description: as §1, §2

[4] = system: cocklebur (Xanthium strumarium); details: for Cocklebur plant response rating: scale 0 to 100 (0 no effect, 100 complete control)
Description: as §1, §2

[5] = Postemergence, 250 g ai/ha, scale 0 to 100
[6] = Postemergence, 500 g ai/ha, scale 0 to 100
[7] = Preemergence, 62 g ai/ha, scale 0 to 100, 0 no effect, 100 complete control
[8] = Preemergence, 125 g ai/ha, scale 0 to 100
[9] = Preemergence, 250 g ai/ha, scale 0 to 100
[10] = Preemergence, 500 g ai/ha, scale 0 to 100
[11] = Preemergence, 16 g ai/ha, scale 0 to 100, 0 no effect, 100 complete control
[12] = Preemergence, 31 g ai/ha, scale 0 to 100, 0 no effect, 100 complete control

COC(=O)CNc1nc(C2CC2)nc(C(=O)OC)c1Br [Compound 10]
Kochia plant response rating (kochia (Kochia scoparia); Postemergence, 62 g ai/ha): 80
Kochia plant response rating (kochia (Kochia scoparia); Postemergence, 125 g ai/ha): 90
Plant response rating, Kochia (kochia (Kochia scoparia); [5]): 95
Plant response rating, Kochia (kochia (Kochia scoparia); [6]): 100
Plant response rating, Kochia (kochia (Kochia scoparia); [7]): 0
Plant response rating, Kochia (kochia (Kochia scoparia); [8]): 0
Plant response rating, Kochia (kochia (Kochia scoparia); [9]): 45
Plant response rating, Kochia (kochia (Kochia scoparia); [10]): 65
Johnsongrass plant response rating ([1]; Postemergence, 62 g ai/ha): 0
Johnsongrass plant response rating ([1]; Postemergence, 125 g ai/ha): 0
Plant response rating, Johnsongrass [1, 5]: 0
Plant response rating, Johnsongrass [1, 6]: 0
Plant response rating, Johnsongrass [1, 7]: 0
Plant response rating, Johnsongrass [1, 8]: 0
Plant response rating, Johnsongrass [1, 9]: 0
Plant response rating, Johnsongrass [1, 10]: 0
Crabgrass plant response rating ([2]; Postemergence, 62 g ai/ha): 0
Crabgrass plant response rating ([2]; Postemergence, 125 g ai/ha): 0
Plant response rating, Crabgrass [2, 5]: 0
Plant response rating, Crabgrass [2, 6]: 0
Plant response rating, Crabgrass [2, 7]: 0
Plant response rating, Crabgrass [2, 8]: 0
Plant response rating, Crabgrass [2, 9]: 0
Plant response rating, Crabgrass [2, 10]: 0
Pigweed plant response rating ([3]; Postemergence, 62 g ai/ha): 65
Pigweed plant response rating ([3]; Postemergence, 125 g ai/ha): 80
Plant response rating, Pigweed [3, 5]: 95
Plant response rating, Pigweed [3, 6]: 95
Plant response rating, Pigweed [3, 7]: 20
Plant response rating, Pigweed [3, 8]: 55
Plant response rating, Pigweed [3, 9]: 70
Plant response rating, Pigweed [3, 10]: 85
Cocklebur plant response rating ([4]; Postemergence, 62 g ai/ha): 0
Cocklebur plant response rating ([4]; Postemergence, 125 g ai/ha): 15
Plant response rating, Cocklebur [4, 5]: 60
Plant response rating, Cocklebur [4, 6]: 75
Plant response rating, Cocklebur [4, 8]: 0
Plant response rating, Cocklebur [4, 9]: 0
Plant response rating, Cocklebur [4, 10]: 100

COCc1nc(C2CC2)nc(N)c1Br [Compound 11]
Plant response rating (scale of 0 to 100), Kochia (kochia (Kochia scoparia); Postemergence, 16 g ai/ha): 40
Plant response rating (scale of 0 to 100), Kochia (kochia (Kochia scoparia); Postemergence, 31 g ai/ha): 65
Kochia plant response rating (kochia (Kochia scoparia); Postemergence, 62 g ai/ha): 75
Kochia plant response rating (kochia (Kochia scoparia); Postemergence, 125 g ai/ha): 90
Plant response rating, Kochia (kochia (Kochia scoparia); [11]): 0
Plant response rating, Kochia (kochia (Kochia scoparia); [12]): 0
Plant response rating, Kochia (kochia (Kochia scoparia); [7]): 0
Plant response rating, Kochia (kochia (Kochia scoparia); [8]): 60
Plant response rating (scale of 0 to 100), Johnsongrass ([1]; Postemergence, 16 g ai/ha): 0
Plant response rating (scale of 0 to 100), Johnsongrass ([1]; Postemergence, 31 g ai/ha): 0
Johnsongrass plant response rating ([1]; Postemergence, 62 g ai/ha): 0
Johnsongrass plant response rating ([1]; Postemergence, 125 g ai/ha): 0
Plant response rating, Johnsongrass [1, 11]: 0
Plant response rating, Johnsongrass [1, 12]: 0
Plant response rating, Johnsongrass [1, 7]: 0
Plant response rating, Johnsongrass [1, 8]: 75
Plant response rating (scale of 0 to 100), Crabgrass ([2]; Postemergence, 16 g ai/ha): 0
Plant response rating (scale of 0 to 100), Crabgrass ([2]; Postemergence, 31 g ai/ha): 0
Crabgrass plant response rating ([2]; Postemergence, 62 g ai/ha): 0
Crabgrass plant response rating ([2]; Postemergence, 125 g ai/ha): 20
Plant response rating, Crabgrass [2, 11]: 0
Plant response rating, Crabgrass [2, 12]: 0
Plant response rating, Crabgrass [2, 7]: 0
Plant response rating, Crabgrass [2, 8]: 60
Plant response rating (scale of 0 to 100), Pigweed ([3]; Postemergence, 16 g ai/ha): 60
Plant response rating (scale of 0 to 100), Pigweed ([3]; Postemergence, 31 g ai/ha): 70
Pigweed plant response rating ([3]; Postemergence, 62 g ai/ha): 80
Pigweed plant response rating ([3]; Postemergence, 125 g ai/ha): 90
Plant response rating, Pigweed [3, 11]: 0
Plant response rating, Pigweed [3, 12]: 0
Plant response rating, Pigweed [3, 7]: 65
Plant response rating, Pigweed [3, 8]: 90
Plant response rating (scale of 0 to 100), Cocklebur ([4]; Postemergence, 16 g ai/ha): 0
Plant response rating (scale of 0 to 100), Cocklebur ([4]; Postemergence, 31 g ai/ha): 0
Cocklebur plant response rating ([4]; Postemergence, 62 g ai/ha): 25
Cocklebur plant response rating ([4]; Postemergence, 125 g ai/ha): 40
Plant response rating, Cocklebur [4, 11]: 0
Plant response rating, Cocklebur [4, 12]: 0
Plant response rating, Cocklebur [4, 7]: 0
Plant response rating, Cocklebur [4, 8]: 0

CCOC(=O)Cc1nc(C2CC2)nc(N)c1Br [Compound 12]
Plant response rating, Kochia (kochia (Kochia scoparia); [12]): 0
Plant response rating, Kochia (kochia (Kochia scoparia); [7]): 50
Plant response rating, Kochia (kochia (Kochia scoparia); [8]): 50
Plant response rating, Kochia (kochia (Kochia scoparia); [9]): 85
Plant response rating, Johnsongrass [1, 12]: 0
Plant response rating, Johnsongrass [1, 7]: 0
Plant response rating, Johnsongrass [1, 8]: 5
Plant response rating, Johnsongrass [1, 9]: 5
Plant response rating, Crabgrass [2, 12]: 0
Plant response rating, Crabgrass [2, 7]: 0
Plant response rating, Crabgrass [2, 8]: 0
Plant response rating, Crabgrass [2, 9]: 0
Plant response rating, Pigweed [3, 12]: 10
Plant response rating, Pigweed [3, 7]: 50
Plant response rating, Pigweed [3, 8]: 50
Plant response rating, Pigweed [3, 9]: 85
Plant response rating, Cocklebur [4, 12]: 50
Plant response rating, Cocklebur [4, 7]: 50
Plant response rating, Cocklebur [4, 8]: 85
Plant response rating, Cocklebur [4, 9]: 90
